{
  "source": "patent US6537567B1",
  "about": "“Tissue-engineered tubular construct having circumferentially oriented smooth muscle cells” (Massachusetts Institute of Technology, priority 1997, dated 2003)",
  "key": {"smooth muscle cell": {"tested_on": "smooth muscle cell", "settings": "cited from earlier work"}, "aortic endothelial cell": {"tested_on": "aortic endothelial cell", "settings": "cited from earlier work"}, "Segments of neo-artery": {"tested_on": "Segments of neo-artery", "test": "Pharmacologic reactivity of vessel segments in myographs", "format": "cell-based", "settings": "for constriction response of vessel segment: prostaglandin F2α 10^−5 to 10^−4 M, serotonin 10^−6 to 10^−5 M, endothelin-1 10^−7, resting tension four grams", "protocol": "Segments of neo-artery three mm in length were assessed for reactivity to pharmacologic agents using techniques previously reported. Briefly, segments were placed in physiological saline bubbled with 95% O2 and 5% CO2, and mounted on tungsten wires in conventional myographs connected to a pen recorder. Freshly excised segments of rabbit abdominal aorta were used as controls. Vessels were maintained at a resting tension of four grams for 30 minutes prior to testing. Vessels were exposed to indomethacin 10^−5 M, LNNA 10^−4 M, norepinephrine 10^−6 M, prostaglandin F2α10^−5 to 10^−4 M, papavarine 10^−6 to 10^−5 M, serotonin 10^−6 to 10^−5 M, endothelin-1 10^−7 and potassium 30-60 mM. […] In some experiments, the magnitude of the constriction response was augmented by prior exposure to indomethacin."}, "smooth muscle cells": {"tested_on": "smooth muscle cells", "test": "Growth of smooth muscle cells under externally applied physical forces", "format": "cell-based", "settings": "response to externally applied physical forces such as pulsatile force", "protocol": "For use in the methods of the present invention, several variations on standard cell growth media have been developed. […] In addition, for growing any cells which normally produce a substantial collagenous extracellular matrix, an “enhanced cell growth medium” has been developed which comprises standard cell growth medium, as described above, supplemented with 1-10 mM, preferably 5 mM, HEPES buffer; 0.01-0.1 g/L, preferably 0.02-0.06 g/L, Vitamin C; 0.01-0.1 g/L, preferably 0.02-0.06 g/L, proline; 0.01-0.1 g/L, preferably 0.02-0.06 g/L, glycine; 0.01-0.1 g/L, preferably 0.02-0.06 g/L, alanine; and 0.5-5.0 μg/L, preferably 1.0-3.0 μg/L, of a copper salt (e.g., CuSO4). Because Vitamin C has a half-life of only 6-8 hours at 37° C. in culture medium, Vitamin C is preferably replenished daily to enhance collagen synthesis by the cells. In addition, proline, glycine, and alanine are provided in excess to provide adequate amounts of these amino acids for the synthesis of collagen and other extracellular matrix proteins such as elastin. Copper ions are a necessary co-factor for elastin synthesis and, therefore, a source of copper ions (e.g., CuSO4) is preferably included in media used to grow elastin-rich tissues. For the growth of endothelial cells, it is preferred that CS be used rather than FBS. […]"}},
  "data": [
    {"compound": "bFGF: basic fibroblast growth factor", "values": [
      {"measurement": "effect on smooth muscle cell proliferation", "setting": "smooth muscle cell", "value": "stimulate smooth muscle cell proliferation"},
      {"measurement": "effect on aortic endothelial cell growth", "setting": "aortic endothelial cell", "value": "stimulate aortic endothelial cell growth"}
    ]},
    {"compound": "COc1ccc2c(c1)c(CC(=O)O)c(C)n2C(=O)c1ccc(Cl)cc1", "note": "[indomethacin]", "values": [
      {"measurement": "effect of prior exposure on magnitude of the constriction response", "setting": "Segments of neo-artery; indomethacin 10^−5 M, in some experiments", "value": "augmented"}
    ]},
    {"compound": "PDGF", "values": [
      {"measurement": "effect on smooth muscle cell proliferation", "setting": "smooth muscle cell", "value": "stimulate smooth muscle cell proliferation"}
    ]},
    {"compound": "NCCc1c[nH]c2ccc(O)cc12", "note": "[serotonin]", "values": [
      {"measurement": "constriction response of vessel segment", "setting": "Segments of neo-artery", "value": "reproducible constriction"}
    ]},
    {"compound": "[H]/N=C(/N)N[C@H]1[C@H](O)[C@@H](O)[C@H](O[C@@H]2O[C@@H](C)[C@](O)(C=O)[C@H]2O[C@@H]2O[C@@H](CO)[C@H](O)[C@@H](O)[C@@H]2NC)[C@@H](N/C(N)=N\\[H])[C@@H]1O", "note": "[streptomycin]", "values": [
      {"measurement": "effect on development of the desired smooth muscle phenotype", "setting": "smooth muscle cells", "value": "tends to inhibit the development of the desired phenotype"}
    ]},
    {"compound": "COc1ccc(Cc2nccc3cc(OC)c(OC)cc23)cc1OC", "note": "[papavarine]", "values": [
      {"measurement": "relaxation response of vessel segment", "setting": "Segments of neo-artery; papavarine 10^−6 to 10^−5 M", "value": "relaxation"}
    ]},
    {"compound": "VEGF", "values": [
      {"measurement": "effect on aortic endothelial cell growth", "setting": "aortic endothelial cell", "value": "stimulate aortic endothelial cell growth"}
    ]},
    {"compound": "prostaglandin F2α", "values": [
      {"measurement": "constriction response of vessel segment", "setting": "Segments of neo-artery", "value": "reproducible constriction"}
    ]},
    {"compound": "endothelin-1 (CSCSSLMDKECVYFCHLDIIW; Endothelin-1; UniProt P05305 53-73, looked up)", "values": [
      {"measurement": "constriction response of vessel segment", "setting": "Segments of neo-artery", "value": "reproducible constriction"}
    ]},
    {"compound": "aFGF: acidic fibroblast growth factor", "values": [
      {"measurement": "effect on smooth muscle cell proliferation", "setting": "smooth muscle cell", "value": "stimulate smooth muscle cell proliferation"}
    ]}
  ]
}
